Laboratory results as given in ChEMBL document CHEMBL3507680, “University of Dundee, Gates Library screen for HepG2 cell viability”.
“And” between values parts separate entries of the source, which are not always exact repeats. Equal values may be shown once.

Assay: Human HepG2 cell viability assay in 384 well format
Type: toxicity, cell-based
Parameters: dose 125 nL, time 70.5 hour; cytotoxicity at 70.5 h: concentration not given beside the values
Conditions: HepG2 cells, read-out: Inhibition

With `CCOCC(=O)Nc1ncc(I)cc1C` as the compound, how does the cytotoxicity at 70.5 h read?
Its cytotoxicity at 70.5 h is -7.61%.

Which cytotoxicity at 70.5 h does the source give for `Cn1ccnc1C(O)c1ccccc1N1CCN(CC2CCCC2)CC1` (stereo unspecified) here?
The cytotoxicity at 70.5 h was -3.89%.

For `Cc1nccc(CNC(=O)NCCC(=O)N2CCCc3ccccc32)n1`, which cytotoxicity at 70.5 h is on record?
Its cytotoxicity at 70.5 h is -2.13%.

With `Cc1cc(C)cc(CN2CCN(Cc3cccc(CCN)c3)CC2=O)c1` as the compound, how does the cytotoxicity at 70.5 h read?
Its cytotoxicity at 70.5 h is -10.8%.

Which cytotoxicity at 70.5 h does the source give for `CC(C1CCN(Cc2c(Cl)ccc(O)c2Cl)CC1)N1CCN(C)CC1` (stereo unspecified) here?
Its cytotoxicity at 70.5 h is -4.03%.

Which cytotoxicity at 70.5 h does the source give for `O=C(NCCn1cccn1)Nc1cc(C(=O)N2CCOCC2)ccc1Cl` here?
Its cytotoxicity at 70.5 h is -7.57%.

For `COc1ccc2c(c1)NC(C1CCN(C(=O)C3CC3)CC1)NS2(=O)=O` (stereo unspecified), which cytotoxicity at 70.5 h is on record?
Its cytotoxicity at 70.5 h is -4.62%.

Which cytotoxicity at 70.5 h does the source give for `O=C(C1CCOC1)N1CCC2(CC1)COCCN(Cc1ccncc1)C2` (stereo unspecified) here?
Its cytotoxicity at 70.5 h is -11.2%.

Which cytotoxicity at 70.5 h does the source give for `CN1CCOCC12CCN(C(=O)C1CCC1)CC2` here?
The cytotoxicity at 70.5 h was 1.58%.

With `N#CC(NC(=O)c1cccc2c1OCCO2)c1ccc(F)cc1F` (stereo unspecified) as the compound, how does the cytotoxicity at 70.5 h read?
Its cytotoxicity at 70.5 h is -4.12%.

For `c1coc(CN2CCc3onc(Cn4ccnc4)c3C2)c1`, which cytotoxicity at 70.5 h is on record?
Its cytotoxicity at 70.5 h is -2.36%.

With `CCC(Nc1nc(C)nc2onc(C)c12)c1cccs1` (stereo unspecified) as the compound, how does the cytotoxicity at 70.5 h read?
Its cytotoxicity at 70.5 h is -2.98%.

Which cytotoxicity at 70.5 h does the source give for `CC(C)=CCN1C[C@H]2CC[C@@H]1CN(Cc1coc(C)n1)C2` here?
Its cytotoxicity at 70.5 h is -5.37%.

Which cytotoxicity at 70.5 h does the source give for `O=C(c1cnc(NCc2cccnc2)c(Cl)c1)N1CCCCC1` here?
Its cytotoxicity at 70.5 h is -12.2%.

For `CN1CCC2(CC1)CN(C(=O)c1cccnc1)Cc1ccccc12`, which cytotoxicity at 70.5 h is on record?
Its cytotoxicity at 70.5 h is 9.45%.

Which cytotoxicity at 70.5 h does the source give for `COCCN1C[C@@H](C)[C@@]2(COCCN(C(=O)c3ccccn3)C2)C1` here?
Its cytotoxicity at 70.5 h is -4.02%.

With `Cc1noc(C2CCCN(CC(=O)N3CCNC(=O)C3)C2)n1` (stereo unspecified) as the compound, how does the cytotoxicity at 70.5 h read?
Its cytotoxicity at 70.5 h is -4.79%.

For `COc1cccc(S(=O)(=O)N2CCn3cnc(COCC4CC4)c3C2)c1`, which cytotoxicity at 70.5 h is on record?
The cytotoxicity at 70.5 h was -10%.

With `O=C(NCCc1ccccc1)c1cn(CCNCc2cccnc2)nn1` as the compound, how does the cytotoxicity at 70.5 h read?
The cytotoxicity at 70.5 h was -6.19%.

With `CCC1=NN2C(=N)/C(=C\c3cccn3-c3ccc(Br)cc3)C(=O)N=C2S1` as the compound, how does the cytotoxicity at 70.5 h read?
The cytotoxicity at 70.5 h was 3.19%.

For `O=C(C1CCOCC1)N1CCC2(CCC(C(=O)N3CCCC3)O2)CC1` (stereo unspecified), which cytotoxicity at 70.5 h is on record?
Its cytotoxicity at 70.5 h is -6.14%.

For `CC(=O)N1CCC2(CC1)C(=O)N(CC1CCN(C)CC1)c1ccccc12`, which cytotoxicity at 70.5 h is on record?
The cytotoxicity at 70.5 h was -8.7%.

Which cytotoxicity at 70.5 h does the source give for `CCn1cc(CN(C)C(=O)c2cc(C(F)(F)F)n(C)n2)cn1` here?
The cytotoxicity at 70.5 h was -7.42%.

Which cytotoxicity at 70.5 h does the source give for `Cc1nnc(NC(=O)NC2CCCc3c2cnn3CCO)s1` (stereo unspecified) here?
The cytotoxicity at 70.5 h was -6.14%.

Which cytotoxicity at 70.5 h does the source give for `O=C(O)c1cccnc1CN1CCCC1CCc1ccccc1` (stereo unspecified) here?
Its cytotoxicity at 70.5 h is -14.9%.

With `COc1c(CNCc2ccc(CS(C)(=O)=O)cc2)c(C)nn1C` as the compound, how does the cytotoxicity at 70.5 h read?
The cytotoxicity at 70.5 h was 26.4%.

Which cytotoxicity at 70.5 h does the source give for `COCC(=O)N1CC[C@H]2C[C@H](c3nc(C)no3)O[C@@H]2C1` here?
The cytotoxicity at 70.5 h was -7.44%.

For `CCOc1ncccc1CNC(=O)Nc1cc(C)nn1C`, which cytotoxicity at 70.5 h is on record?
Its cytotoxicity at 70.5 h is -4.27%.

With `O=C(c1ccco1)N1CCc2onc(CN3CCCC3)c2C1` as the compound, how does the cytotoxicity at 70.5 h read?
Its cytotoxicity at 70.5 h is 7.25%.

Which cytotoxicity at 70.5 h does the source give for `O=C(NCC1CC1)[C@H]1C[C@@H]2CCN(Cc3nccs3)C[C@@H]2O1` here?
The cytotoxicity at 70.5 h was -2.02%.

Which cytotoxicity at 70.5 h does the source give for `O=C(c1ccc2c(c1)[nH]c(=O)n2C1CCCC1)N1CCC1` here?
The cytotoxicity at 70.5 h was -3.8%.

With `Cc1nc(-c2ccccc2)n(CC(=O)NC(C2CC2)C2CC2)n1` as the compound, how does the cytotoxicity at 70.5 h read?
The cytotoxicity at 70.5 h was -4.87%.

For `COc1ccc(CN(Cc2cncn2C)CC2CCCO2)c(OC)c1` (stereo unspecified), which cytotoxicity at 70.5 h is on record?
Its cytotoxicity at 70.5 h is 4.29%.

For `CC(=O)Nc1cccc2c1ccn2CC(=O)Nc1n[nH]c(CC(C)C)n1`, which cytotoxicity at 70.5 h is on record?
Its cytotoxicity at 70.5 h is -5.98%.

Which cytotoxicity at 70.5 h does the source give for `Cc1ccc(C(F)(F)F)cc1C(=O)N[C@H]1CN(CCO)C[C@@H]1C1CC1` here?
Its cytotoxicity at 70.5 h is -3.09%.

For `CC(C)(C)C(O)CN1CCN(Cc2ccc(C#N)cc2)CC1` (stereo unspecified), which cytotoxicity at 70.5 h is on record?
Its cytotoxicity at 70.5 h is -6.98%.

Which cytotoxicity at 70.5 h does the source give for `CC(C)c1noc(CCC(=O)N2CCCC(n3ccnc3)C2)n1` (stereo unspecified) here?
Its cytotoxicity at 70.5 h is -5.4%.

Which cytotoxicity at 70.5 h does the source give for `CC(C)(C)OC(=O)NC(C)(C)c1noc(Cn2ccnc2)n1` here?
The cytotoxicity at 70.5 h was -4.72%.

For `c1ccc(CN2CCNCC(Cc3cnccn3)C2)cc1` (stereo unspecified), which cytotoxicity at 70.5 h is on record?
The cytotoxicity at 70.5 h was -1.06%.

Which cytotoxicity at 70.5 h does the source give for `O=C(COC1CCCC1)NCCc1nc(-c2ccccn2)cs1` here?
The cytotoxicity at 70.5 h was -3.01%.

For `Cc1nc2sccn2c1CN(CCCN(C)C)Cc1ccccn1`, which cytotoxicity at 70.5 h is on record?
Its cytotoxicity at 70.5 h is -8.06%.

Which cytotoxicity at 70.5 h does the source give for `Cc1ccc(CN2CC[C@H]3OCC[C@@H](C(=O)NC4CC4)[C@@H]3C2)o1` here?
The cytotoxicity at 70.5 h was 18.8%.

With `Cc1nc(-c2ccncc2)ncc1C(C)NC(=O)C1=NN(C)C(=O)CC1` (stereo unspecified) as the compound, how does the cytotoxicity at 70.5 h read?
The cytotoxicity at 70.5 h was -8.41%.

Which cytotoxicity at 70.5 h does the source give for `O=S(=O)(c1cn[nH]c1)N1CCCC(O)(CN2CCOCC2)CC1` (stereo unspecified) here?
The cytotoxicity at 70.5 h was -3.34%.

For `COCCN1CCC2(COCc3c(C)nc(N4CCOCC4)nc32)C1` (stereo unspecified), which cytotoxicity at 70.5 h is on record?
The cytotoxicity at 70.5 h was -1.01%.

With `Cc1cnn(CC2CCCN2C(=O)Cc2ccc(C)nc2)c1` (stereo unspecified) as the compound, how does the cytotoxicity at 70.5 h read?
The cytotoxicity at 70.5 h was -7.79%.

For `CC(C)c1nc(CN(C)Cc2ccc(F)cc2)cs1`, which cytotoxicity at 70.5 h is on record?
The cytotoxicity at 70.5 h was -22.4%.

Which cytotoxicity at 70.5 h does the source give for `Cc1nn(C)c(C)c1-c1cc(-c2cnn(C)c2C2CC2)c(C#N)c(N)n1` here?
The cytotoxicity at 70.5 h was -12.7%.

With `CCC(CC)NC(=O)Cn1cc(-c2ccccc2)cn1` as the compound, how does the cytotoxicity at 70.5 h read?
The cytotoxicity at 70.5 h was -2.71%.

For `CCc1ccc(NC(=O)N2C[C@H]3C[C@H](C(=O)NC4CCC4)[C@@H](C2)O3)cc1`, which cytotoxicity at 70.5 h is on record?
Its cytotoxicity at 70.5 h is 8.99%.

Which cytotoxicity at 70.5 h does the source give for `CCCNc1ncc(CN2C[C@H]3CC[C@@H]2CN(C2CCOCC2)C3)cn1` here?
Its cytotoxicity at 70.5 h is 2.68%.

Which cytotoxicity at 70.5 h does the source give for `CC(Cn1cccn1)NC(=O)N(C)Cc1ccsc1` (stereo unspecified) here?
Its cytotoxicity at 70.5 h is -16.6%.

For `CCC(CO)N(Cc1cccnc1)C(=O)c1ccc(C(F)(F)F)nc1O` (stereo unspecified), which cytotoxicity at 70.5 h is on record?
The cytotoxicity at 70.5 h was -18.7%.

Which cytotoxicity at 70.5 h does the source give for `O=C([C@H]1CCCO1)N1CCC2(CC1)C(=O)N(CC1CC1)c1ccccc12` here?
The cytotoxicity at 70.5 h was -1.06%.

For `CCn1ccnc1CN(C)c1cc(C2CC2)ncn1`, which cytotoxicity at 70.5 h is on record?
Its cytotoxicity at 70.5 h is -5.12%.

Same assay, conditions: hepg2, 70.5 h, 70.5 h

With `Cc1cc(NC(=O)C(C)Cn2cncn2)no1` (stereo unspecified) as the compound, how does the Inhibition read?
Its Inhibition is 6.977% and -4.493%.
